Measurements published in patent US5614370A, “Assay to identify human C5a antagonists and agonists” (Merck & Co., Inc., priority 1994, dated 1997).
Like-named read-outs stand apart in the source and are kept apart here. Blank lines part the entries; values can stand above or below the molecule they belong to. Non-standard residues stand in square brackets, D forms with d. Residues, ends and D or L forms follow the SMILES beside them. Cha = N[C@@H](CC1CCCCC1)C(=O)O

Key:
C5a receptor [1] = biological target: T1, C5a receptor (Homo sapiens, UniProt P21730); format: binding; details: 293 cells present, FIG. 4A; PMN membranes
T1 construct: followed by a 20 μL aliquot of neutrophil membrane; endogenous in cells
T1 sequence (P21730 1-350): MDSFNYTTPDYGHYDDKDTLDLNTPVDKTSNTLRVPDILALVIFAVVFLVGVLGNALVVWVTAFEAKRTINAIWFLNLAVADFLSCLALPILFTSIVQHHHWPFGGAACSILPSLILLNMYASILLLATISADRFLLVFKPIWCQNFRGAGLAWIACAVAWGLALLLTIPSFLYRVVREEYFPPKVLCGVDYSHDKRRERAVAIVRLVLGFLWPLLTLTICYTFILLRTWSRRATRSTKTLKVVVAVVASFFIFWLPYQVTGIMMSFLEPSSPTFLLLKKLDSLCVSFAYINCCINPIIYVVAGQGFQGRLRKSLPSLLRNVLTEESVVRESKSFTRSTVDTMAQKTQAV
Excerpt: FIGS. 4A, 4B and 4C. (A) Competition binding curve using ^125 I-labeled intact C5a and unlabeled C013 peptide in the presence and absence of protease secreting cells.
(B) Competition binding curve using ^125 I-labeled intact C5a and unlabeled C028 peptide in the presence and absence of protease secreting cells.
(C) Competition binding curve using ^125 I-labeled intact C5a and unlabeled C013 and C028 peptides in the presence and absence of protease secreting cells in the presence or absence of protease inhibitor.
We therefore attempted, and succeeded, to improve on this radioligand by identifying a compound with lower non-specific binding, and higher binding affinity. We developed the compound C013, ^125 I-Tyr Phe Lys Ala Cha Gly Leu dPhe Arg, SEQ.ID:2:, which had about 30-fold the binding affinity of ^125 I-C009.

C5a receptor [2] = details: cited from earlier work
C5a receptor [3] = details: literature; cited from earlier work

loss of potency in displacement of 125I-C5a in the presence of 293 cells (C5a receptor [1]): about 100 fold
Molecule: CC(C)C[C@H](NC(=O)CNC(=O)[C@H](CC1CCCCC1)NC(=O)[C@H](C)NC(=O)[C@H](CCCCN)NC(=O)[C@@H](N)Cc1ccccc1)C(=O)N[C@H](Cc1ccccc1)C(=O)N[C@@H](CCCNC(=N)N)C(=O)O [C013a] (H-FKA[Cha]GL[dF]R-OH)

Molecule: C-terminal C5a octapeptide: C-terminal C5a octapeptide which retained receptor binding activity (Kawai et al.) (HKDMQLGR; C5a anaphylatoxin; UniProt P01031 744-751, looked up, fragment)
C5a binding in words (C5a receptor [2]; literature): retained receptor binding activity

Molecule: natural C-terminus of C5a: synthetic peptide consisting of the C-terminal eight amino acids of C5a (HKDMQLGR; C5a anaphylatoxin; UniProt P01031 744-751, looked up, fragment) [reference compound]
agonist properties in words (C5a receptor [3]): has agonist properties
Ki (C5a receptor [2]; C-terminal eight residues of C5a, read-out: Ki, inhibition of C5a binding): 300 µM

B1: Phe for His67 substituted C5a peptide: Phe for His67 substituted C5a peptide (Mollison et al.) (peptide, UniProt P01031 678-751, looked up, variant H67F)
C5a anaphylatoxin: TLQKKIEEIAAKYKHSVVKKCCYDGACVNNDETCEQRAARISLGPRCIKAFTECCVVASQLRANISFKDMQLGR
modifications: C5a anaphylatoxin
Ki (C5a receptor [2]; literature, read-out: Ki for C5a binding): 0.26 µM
